Reference: the supplement of paper PMC10307832

Tests used:
Test in all cases: relative viability (nuclei count vs DMSO), 5 days (fraction); higher = more cells survive
MK-8033 + Linsitinib = compound: Cn1cc(-c2cnc3ccc4ccc(CS(=O)(=O)NCc5ccccn5)cc4c(=O)c3c2)cn1 [MK-8033] + C[C@]1(O)C[C@@H](c2nc(-c3ccc4ccc(-c5ccccc5)nc4c3)c3c(N)nccn32)C1 [Linsitinib] (partner 1 µM)
Procedure, shortened: (§1)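 Relative viability is defined as nuclei in treated wells over nuclei in vehicle wells. Duplicate plates were run and medians reported. Lung cancer cell lines in 1536-well plates were dosed by pin tool one day after seeding, with one drug or with a fixed anchor-drug dose plus five library-drug doses (not always all listed) in √10 steps, and nuclei were counted after 5 days.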

RU-SKI 43 + OSI-027 = compound: CC[C@@H](C)CNCC(=O)N1CCC2=C([C@@H]1COC3=CC=CC(=C3)C)C=CS2 [RU-SKI 43] + COc1cccc2cc(-c3nc([C@H]4CC[C@H](C(=O)O)CC4)n4ncnc(N)c34)[nH]c12 [OSI-027] (partner 0.5 µM)
Procedure, shortened: as §1

MK-8033 + Tozasertib = compound: Cn1cc(-c2cnc3ccc4ccc(CS(=O)(=O)NCc5ccccn5)cc4c(=O)c3c2)cn1 [MK-8033] + Cc1cc(Nc2cc(N3CCN(C)CC3)nc(Sc3ccc(NC(=O)C4CC4)cc3)n2)n[nH]1 [Tozasertib] (partner 0.1 µM)
Procedure, shortened: as §1

RU-SKI 43 + Trametinib = compound: CC[C@@H](C)CNCC(=O)N1CCC2=C([C@@H]1COC3=CC=CC(=C3)C)C=CS2 [RU-SKI 43] + CC(=O)Nc1cccc(-n2c(=O)n(C3CC3)c(=O)c3c(Nc4ccc(I)cc4F)n(C)c(=O)c(C)c32)c1 [Trametinib] (partner 0.02 µM)
Procedure, shortened: as §1

Cell Line	relative viability (MK-8033 + Linsitinib; first compound 0.02 µM)	relative viability (MK-8033 + Linsitinib; first compound 0.06325 µM)	relative viability (MK-8033 + Linsitinib; first compound 0.2 µM)	relative viability (MK-8033 + Linsitinib; first compound 0.6325 µM)	relative viability (MK-8033 + Linsitinib; first compound 2 µM)	relative viability (RU-SKI 43 + OSI-027; first compound 0.1 µM)	relative viability (RU-SKI 43 + OSI-027; first compound 0.3162 µM)	relative viability (RU-SKI 43 + OSI-027; first compound 1 µM)	relative viability (RU-SKI 43 + OSI-027; first compound 3.162 µM)	relative viability (RU-SKI 43 + OSI-027; first compound 10 µM)	relative viability (MK-8033 + Tozasertib; first compound 0.02 µM)	relative viability (MK-8033 + Tozasertib; first compound 0.06325 µM)	relative viability (MK-8033 + Tozasertib; first compound 0.2 µM)	relative viability (MK-8033 + Tozasertib; first compound 0.6325 µM)	relative viability (MK-8033 + Tozasertib; first compound 2 µM)	relative viability (RU-SKI 43 + Trametinib; first compound 0.1 µM)	relative viability (RU-SKI 43 + Trametinib; first compound 0.3162 µM)	relative viability (RU-SKI 43 + Trametinib; first compound 1 µM)	relative viability (RU-SKI 43 + Trametinib; first compound 3.162 µM)	relative viability (RU-SKI 43 + Trametinib; first compound 10 µM)
NCI-H2085	0.831	0.797	0.837	0.943	0.825	0.705	0.678	0.696	0.834	0.552	0.812	0.708	0.73	0.841	0.593	0.506	0.493	0.494	0.653	0.499
NCI-H2087	1.15	0.973	0.832	0.91	0.915	0.666	0.56	0.705	0.563	0.516	0.241	0.266	0.237	0.246	0.247	0.233	0.159	0.221	0.189	0.161
NCI-H2126	0.727	0.659	0.673	0.686	0.715	0.681	0.627	0.777	0.678	0.715	0.773	0.749	0.772	0.841	0.79	0.56	0.605	0.506	0.607	0.559
NCI-H2228	0.577	0.629	0.537	0.761	0.625	0.651	0.722	0.483	0.689	0.471	0.199	0.214	0.168	0.253	0.214	0.37	0.55	0.466	0.396	0.306
NCI-H2347	0.884	0.855	0.958	0.977	0.895	0.414	0.414	0.697	0.389	0.328	0.545	0.574	0.584	0.552	0.436	0.293	0.275	0.388	0.289	0.302
NCI-H2405	0.882	0.91	0.783	0.831	0.957	0.618	0.56	0.615	0.684	0.569	0.735	0.726	0.724	0.734	0.789	0.645	0.681	0.612	0.713	0.581
NCI-H3122	1.01	1.04	0.993	1.04	1.02	1.02	1.23	1.31	1.01	0.96	0.53	0.374	0.383	0.369	0.323	0.244	0.233	0.241	0.252	0.259
PC-3 [JPC-3]	0.947		0.863	0.961	0.987	0.682	0.862	0.797	0.804	0.366	0.856	0.825	0.806	0.878	0.787	0.63	0.523	0.79	0.662	0.62
PC-14	0.978	0.843	0.859	0.939	0.858	0.844	1.07	0.93	0.965	0.75	0.607	0.539	0.482	0.594	0.519	0.637	0.824	0.82	0.652	0.533
RERF-LC-KJ	0.885	0.902	0.836	0.908	0.938	0.505	0.514	0.603	0.56	0.548	0.493	0.485	0.457	0.393	0.408	0.846	0.84	0.914	0.85	0.768
SK-LU-1	1.14	1.14	0.951	1.05	0.878	0.324	0.375	0.342	0.361	0.317	0.328	0.35	0.304	0.327	0.312	0.43	0.495	0.492	0.49	0.385
SK-MES-1	1.06	0.995	1.04	1.09	1.09	0.491	0.65	0.737	0.791	0.569	0.902	0.825	0.872	0.886	0.822	0.482	0.597	0.522	0.52	0.474
SW 1573	0.799	0.721	0.764	0.749	0.684	0.634	0.797	0.682	0.741	0.611	0.175	0.214	0.187	0.223	0.232	0.586	0.591	0.584	0.567	0.39
